Results as given in the NIST ThermoML archive (doi:10.1016/j.tca.2009.05.015).
± gives the expanded uncertainty stated by the source.

Conditions: 293 K; 101.33 kPa; Crystal; X-ray diffraction

For `CCCCCCCCCCCCN.Cl` [dodecanamine hydrochloride], the mass density was 1022 ± 2 kg/m3.
